Experimental data published in ChEMBL document CHEMBL5120866, “Design and Synthesis of Novel Celastrol Derivatives as Potential Anticancer Agents against Gastric Cancer Cells” (J Nat Prod, 2022).
Calls of active or inactive are those of the source. The calls are words filed in the database; no cut-off is given here.

What was measured:
[1] = tested on: BGC-823; assay: Induction of cell cycle arrest in human BGC-823 cells assessed as accumulation of cells at G2/M phase at 0.6 uM incubated for 24 hrs by PI staining based flow cytometry method (reference value: 22.86%); assay type: functional
[2] = Toxicity in athymic BALB/c nude mouse assessed as effect on heart at 1.5 mg/kg, ip measured after 21 days by H and E staining based histopathological analysis; assay type: organism-based; conditions: in vivo, 504 h, time 21 day
[3] = tested on: BGC-823; assay: Induction of apoptosis in human BGC-823 cells assessed as viable cells at 0.3 uM incubated for 24 hrs by annexin-V-FITC and PI staining based flow cytometry analysis (reference value: 96.3%); assay type: functional; conditions: read-out: Activity
[4] = Toxicity in athymic BALB/c nude mouse assessed as effect on liver at 1.5 mg/kg, ip measured after 21 days by H and E staining based histopathological analysis; assay type: organism-based; conditions: in vivo, 504 h, time 21 day
[5] = tested on: BGC-823; assay: Antitumor activity against human BGC-823 cells xenografted in athymic BALB/c nude mouse assessed as increase in cell necrosis at 1.5 mg/kg, ip measured after 21 days by H and E staining based analysis; assay type: functional, organism-based; conditions: time 21.0 day
[6] = Toxicity in athymic BALB/c nude mouse assessed as change in body weight at 1.5 mg/kg, ip measured every 2 days for 21 days; assay type: organism-based; conditions: in vivo, 504 h, time 21 day
[7] = tested on: BGC-823; assay: Antiproliferative activity against human BGC-823 cells assessed as cell growth inhibition incubated for 48 hrs by MTT assay; assay type: functional, cell-based; conditions: BGC-823, 48 h
[8] = Toxicity in athymic BALB/c nude mouse assessed as effect on spleen at 1.5 mg/kg, ip measured after 21 days by H and E staining based histopathological analysis; assay type: organism-based; conditions: in vivo, 504 h, time 21 day
[9] = Toxicity in athymic BALB/c nude mouse assessed as effect on lung at 1.5 mg/kg, ip measured after 21 days by H and E staining based histopathological analysis; assay type: organism-based; conditions: in vivo, 504 h, time 21 day
[10] = tested on: BGC-823; assay: Induction of apoptosis in human BGC-823 cells assessed as viable cells at 0.6 uM incubated for 24 hrs by annexin-V-FITC and PI staining based flow cytometry analysis (reference value: 96.3%); assay type: functional; conditions: read-out: Activity
[11] = tested on: BGC-823; assay: Downregulation of cyclin B1 protein expression in human BGC-823 cells at 0.15 to 0.6 uM incubated for 24 hrs by Western blot analysis; assay type: functional, cell-based; conditions: dose 0.15-0.6 µM
[12] = tested on: BGC-823; assay: Induction of apoptosis in human BGC-823 cells assessed as necrotic cells at 0.6 uM incubated for 24 hrs by annexin-V-FITC and PI staining based flow cytometry analysis (reference value: 0.6%); assay type: functional
[13] = tested on: BGC-823; assay: Induction of apoptosis in human BGC-823 cells assessed as necrotic cells at 0.3 uM incubated for 24 hrs by annexin-V-FITC and PI staining based flow cytometry analysis (reference value: 0.6%); assay type: functional
[14] = tested on: BGC-823; assay: Induction of cell cycle arrest in human BGC-823 cells assessed as accumulation of cells at G2/M phase at 0.3 uM incubated for 24 hrs by PI staining based flow cytometry method (reference value: 22.86%); assay type: functional
[15] = tested on: BGC-823; assay: Induction of cell cycle arrest in human BGC-823 cells assessed as accumulation of cells at G0/G1 phase at 0.3 uM incubated for 24 hrs by PI staining based flow cytometry method (reference value: 50.66%); assay type: functional
[16] = tested on: HeLa; assay: Antiproliferative activity against human HeLa cells assessed as cell growth inhibition incubated for 48 hrs by MTT assay; assay type: functional, cell-based

Q: Which results are given for CCOC(=O)c1cnn(CCCOC(=O)[C@]2(C)CC[C@]3(C)CC[C@]4(C)C5=CC=C6C(=CC(=O)C(O)=C6C)[C@]5(C)CC[C@@]4(C)[C@@H]3C2)c1?
A: Activity [1]: 34.73%; Activity [2]: Non-Toxic; viability at 0.3 µM [3]: 78.2%; Activity [4]: Non-Toxic; Activity [5]: Active; Activity [6]: Non-Toxic; IC50 [7]: 210 nM; Activity [8]: Non-Toxic; Activity [9]: Non-Toxic; viability at 0.6 µM [10]: 50.9%; Activity [11]: Active; Activity [12]: 1.5%; Activity [13]: 0.4%; Activity [14]: 27.71%; Activity [15]: 46.1%; IC50 [16]: 480 nM
